Read-outs that look alike come from different tables or passages of the source. Some results are limits rather than exact numbers.

One test has as its target T1, Syk kinase (Homo sapiens, UniProt P43405).
T1 construct: purchased Upstate, Lake Placid N.Y
Put plainly: Syk kinase biochemical fluorescence polarization assay. The settings on record: isolated Syk kinase, 11pt, read-out: fp_syk, 11pt. On the procedure: Many of the 2,4-pyrimidinediamine compounds were tested for the ability to inhibit Syk kinase catalyzed phosphorylation of a peptide substrate in a biochemical fluorescenced polarization assay with isolated Syk kinase. In this experiment, Compounds were diluted to 1% DMSO in kinase buffer (20 mM HEPES, pH 7.4, 5 mM MgCl2, 2 mM MnCl2, 1 mM DTT, 0.1 mg/mL acetylated Bovine Gamma Globulin). Compound in 1% DMSO (0.2% DMSO final) was mixed with ATP/substrate solution at room temperature. Syk kinase (Upstate, Lake Placid N.Y.) was added to a final reaction volume of 20 uL, and the reaction was incubated for 30 minutes at room temperature. […] EDTA (10 mM final)/anti-phosphotyrosine antibody (1× final)/fluorescent phosphopeptide tracer (0.5× final) was added in FP Dilution Buffer to stop the reaction for a total volume of 40 uL according to manufacturer's instructions (PanVera Corporation) The plate was incubated for 30 minutes in the dark at room temperature. Plates were read on a Polarion fluorescence polarization plate reader (Tecan). Data were converted to amount of phosphopeptide present using a calibration curve generated by competition with the phosphopeptide competitor provided in the Tyrosine Kinase Assay Kit, Green (PanVera Corporation).
In Tabe 1, all reported values are IC50s (in μM).

Test [1] has as its system cultured human mast cells (CHMC), IgE-induced degranulation. Put plainly: CHMC low cell density IgE activation: tryptase assay. Format: cell-based. A digest of the protocol:
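Tryptase release read fluorogenically (30 min, room temperature) from supernatants of anti-IgE-challenged cultured human mucosal mast cells derived from umbilical cord CD34+ cells, at low density of 1000–1500 cells/well.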

Test [2] has as its system cultured human mast cells (CHMC), ionomycin-induced degranulation. Put plainly: CHMC low cell density ionomycin activation: tryptase assay. Format: cell-based. To be noted: 3pt, read-out: LD Tryptase, CHMC, Iono, 3pt.
The mark [3] stands for this setting: low cell density CHMC, 3pt, read-out: LD Tryptase, CHMC, IgE, 3pt.
[4] abbreviates: low cell density CHMC, 8pt, read-out: LD Tryptase, CHMC, IgE, 8pt.
The mark [5] stands for this setting: low cell density CHMC, ionomycin activation (2 μM final).
Setting [6] is: CHMC low cell density, 3pt, read-out: LD Tryptase, CHMC, IgE, 3pt.
Where [7] appears, read: CHMC low cell density, ionomycin activation.

On to `COc1cc(Nc2ncc(F)c(Nc3ccc4c(c3)NC(C)(C)CO4)n2)cc(OC)c1` [Compound 203, N4-(3,4-Dihydro-3,3-dimethyl-2H,4H-benz[1,4]oxazin-6-yl)-N2-(3,5-dimethoxyphenyl)-5-fluoro-2,4-pyrimidinediamine], for which, on Syk kinase, the IC50 is under 10 µM.

`O=C1Nc2cc(Nc3nc(Nc4ccc(-c5cnco5)cc4)ncc3F)ccc2OC1CCO` (stereo not shown) [Compound 227]: the IC50 on Syk kinase was under 10 µM.

In the case of `COc1cc(Nc2ncc(F)c(Nc3ccc4c(c3)NC(=O)C(C)S4(=O)=O)n2)cc(OC)c1` (stereo not shown) [Compound 263, N2-(3,5-Dimethoxyphenyl)-N4-(dioxide-2-methyl-1,1,3-trioxo-4H-benzo[1,4]thiazin-6-yl)-5-fluoro-2,4-pyrimidinediamine], the IC50 at Syk kinase is under 10 µM.

As to `Cc1cc(C)cc(Nc2ncc(F)c(Nc3ccc4c(c3)NC(=O)C(C)S4(=O)=O)n2)c1` (stereo not shown) [Compound 264], the IC50 at Syk kinase is under 10 µM.

`CC1C(=O)Nc2cc(Nc3nc(Nc4ccc5cn[nH]c5c4)ncc3F)ccc2S1(=O)=O` (stereo not shown) [Compound 265]: the IC50 on Syk kinase is under 10 µM.

Consider `COc1cc(Nc2ncc(F)c(Nc3ccc4c(c3)NC(=O)C(C)S4(=O)=O)n2)cc(OC)c1OC` (stereo not shown) [Compound 266], for which the IC50 on Syk kinase was under 10 µM.

As for `COc1cc(Nc2ncc(F)c(Nc3ccc4c(c3)NC(=O)C(C)(C)S4(=O)=O)n2)cc(OC)c1` [Compound 267], the IC50 on Syk kinase was under 10 µM.

Turning to `Cc1cc(C)cc(Nc2ncc(F)c(Nc3ccc4c(c3)NC(=O)C(C)(C)S4(=O)=O)n2)c1` [Compound 268], the IC50 at Syk kinase was under 10 µM.

As for `COc1cc(Nc2ncc(F)c(Nc3ccc4c(c3)NC(=O)C(C)(C)S4(=O)=O)n2)cc(OC)c1OC` [Compound 269], at Syk kinase, the IC50 is under 10 µM.

For `CC1(C)Sc2ccc(Nc3nc(Nc4ccc5cn[nH]c5c4)ncc3F)cc2NC1=O` [Compound 295], the IC50 at Syk kinase is under 10 µM.

For `CC1(C)Oc2ccc(Nc3nc(Nc4cc(CO)cc(CO)c4)ncc3F)cc2NC1=O` [Compound 344, N2-[3,5-Bis(hydoxymethylene)phenyl]-N4-(2,2-dimethyl-3-oxo-4H-benz[1,4]oxazin-6-yl)-5-fluoro-2,4-pyrimidinediamine], the IC50 at Syk kinase is under 10 µM.

Take `CN(c1ccc2c(c1)OCCO2)c1nc(Cl)ncc1F` [Compound 390]: the IC50 on Syk kinase was over 10 µM.

Turning to `COc1cc(Nc2ncc(F)c(Nc3ccc4c(c3)NC(=O)C(C)(C)O4)n2)cc(OC)c1OC` [Compound 543], the IC50 on Syk kinase is under 10 µM.

Take `CCn1ncc2cc(Nc3ncc(F)c(Nc4ccc5c(c4)NC(=O)C(C)(C)O5)n3)ccc21` [Compound 696]: the IC50 on Syk kinase is under 10 µM.

As for `CCCn1ncc2cc(Nc3ncc(F)c(Nc4ccc5c(c4)NC(=O)C(C)(C)O5)n3)ccc21` [Compound 704], the IC50 at Syk kinase was under 10 µM.

On to `CCCn1ncc2ccc(Nc3ncc(F)c(Nc4ccc5c(c4)NC(=O)C(C)(C)O5)n3)cc21` [Compound 708], for which the IC50 at Syk kinase is under 10 µM.

In the case of `CCCCn1ncc2cc(Nc3ncc(F)c(Nc4ccc5c(c4)NC(=O)C(C)(C)O5)n3)ccc21` [Compound 712], on Syk kinase, the IC50 is under 10 µM.

Take `CCCCn1ncc2ccc(Nc3ncc(F)c(Nc4ccc5c(c4)NC(=O)C(C)(C)O5)n3)cc21` [Compound 716]: the IC50 on Syk kinase is under 10 µM.

In the case of `CC1(C)Oc2ccc(Nc3nc(Nc4ccc5c(cnn5CC5CC5)c4)ncc3F)cc2NC1=O` [Compound 736], the IC50 on Syk kinase was under 10 µM.

For `CC1(C)Oc2ccc(Nc3nc(Nc4ccc5cnn(CC6CC6)c5c4)ncc3F)cc2NC1=O` [Compound 740], the IC50 on Syk kinase was under 10 µM.

Consider `CC1(C)Oc2ccc(Nc3nc(Nc4ccc5c(cnn5C5CCCCC5)c4)ncc3F)cc2NC1=O` [Compound 744], for which the IC50 at Syk kinase is under 10 µM.

As for `Cc1nn(C)c2cc(Nc3ncc(F)c(Nc4ccc5c(c4)NC(=O)C(C)(C)O5)n3)ccc12` [Compound 754], the IC50 on Syk kinase was under 10 µM.

For `CC1(C)Oc2ccc(Nc3nc(Nc4ccc5nc(C(F)(F)F)[nH]c5c4)ncc3F)cc2NC1=O` [Compound 802, N4-(2,2-Dimethyl-3-oxo-4H-benz[1,4]oxazin-6-yl)-5-fluoro-N2-(2-trifluoromethyl-1H-benzimidazol-5-yl)-2,4-pyrimidinediamine], at Syk kinase, the IC50 was under 10 µM.

`Cn1nc(N)c2cc(Nc3ncc(F)c(Nc4ccc5c(c4)NC(=O)C(C)(C)O5)n3)ccc21` [Compound 806, N2-(3-A mino-1-methylindazol-5-yl)-N4-(2,2-dimethyl-3-oxo-4H-benz[1,4]oxazin-6-yl)-5-fluoro-2,4-pyrimidinediamine]: the IC50 at Syk kinase was under 10 µM.

With `Cc1nc2ccc(Nc3ncc(F)c(Nc4ccc5c(c4)NC(=O)C(C)(C)O5)n3)cc2[nH]1` [Compound 810, N4-(2,2-Dimethyl-3-oxo-4H-benz[1,4]oxazin-6-yl)-5-fluoro-N2-(2-methyl-3H-benzimidazol-5-yl)-2,4-pyrimidinediamine], on Syk kinase, the IC50 was under 10 µM.

Take `Cc1nc2ccc(Nc3ncc(F)c(Nc4ccc5c(c4)NC(=O)[C@H](C)O5)n3)cc2[nH]1` [Compound 811, (S)-5-Fluoro-N2-(2-methyl-3H-benzimidazol-5-yl)-N4-(2-methyl-3-oxo-2H,4H-benz[1,4]oxazin-6-yl)-2,4-pyrimidinediamine]: the IC50 at Syk kinase was under 10 µM.

`CC(=O)NCCCn1ncc2cc(Nc3ncc(F)c(Nc4ccc5c(n4)NC(=O)C(C)(C)O5)n3)ccc21` [Compound 822, N2-[1-[3-(N-Acetylamino)propyl]indazol-5-yl]-N4-(2,2-dimethyl-3-oxo-4H-5-pyrid[1,4]oxazin-6-yl)-5-fluoro-2,4-pyrimidinediamine]: the IC50 on Syk kinase was under 10 µM.

Take `Cc1nc2ccc(Nc3ncc(F)c(Nc4ccc5c(n4)NC(=O)C(C)(C)O5)n3)cc2[nH]1` [Compound 845, N4-(2,2-Dimethyl-3-oxo-4H-5-pyrid[1,4]oxazin-6-yl)-5-fluoro-N2-(2-methyl-3H-benzimidazol-5-yl)-2,4-pyrimidinediamine]: at Syk kinase, the IC50 was under 10 µM.

Consider `CNC(=O)CNC(=O)c1ccc(Nc2ncc(F)c(Nc3ccc4c(c3)NC(=O)[C@H](C)O4)n2)cc1` [Compound 1296, (S)-5-Fluoro-N2-[4-[N-(N-methylamino)carbonylmethylene]aminocarbonylphenyl]-N4-(2-methyl-3-oxo-2H,4H-benz[1,4]oxazin-6-yl)-2,4-pyrimidinediamine], for which the IC50 in test [1] (setting [3]) was under 10 µM; in test [1] (setting [4]), under 10 µM; in test [2] (setting [5]), over 10 µM.

On to `CC(C)(C)OC(=O)NCC(=O)NCc1ccc(Nc2ncc(F)c(Nc3ccc4c(c3)NC(=O)C(C)(C)O4)n2)cc1` [Compound 1307, N2-[4-[1-(tert-Butoxycarbonylamino)methylenecarbonylamino]methylphenyl]-N4-(2,2-dimethyl-3-oxo-4H-benz[1,4]oxazin-6-yl)-5-fluoro-2,4-pyrimidinediamine], for which the IC50 in test [1] (setting [3]), in test [1] (setting [4]) and in test [2] (setting [5]) was under 10 µM in each case.

In the case of `C[C@@H]1Oc2ccc(Nc3nc(Nc4ccc(CNC(=O)CNC(=O)OC(C)(C)C)cc4)ncc3F)cc2NC1=O` [Compound 1308, (S)—N2-[4-[1-(tert-Butoxycarbonylamino)methylenecarbonylamino]methylphenyl]-5-fluoro-N4-(2-methyl-3-oxo-2H,4H-benz[1,4]oxazin-6-yl)-2,4-pyrimidinediamine], the IC50 in test [1] (setting [3]), in test [1] (setting [4]) and in test [2] (setting [5]) was under 10 µM each time.

For the compound `CC(C)(C)OC(=O)NCC(=O)NCc1ccc(Nc2ncc(F)c(Nc3ccc4c(c3)NC(=O)C(F)(F)O4)n2)cc1` [Compound 1309, N2-[4-[1-(tert-Butoxycarbonylamino)methylenecarbonylamino]methylphenyl]-N4-(2,2-difluoro-3-oxo-4H-benz[1,4]oxazin-6-yl)-5-fluoro-2,4-pyrimidinediamine], the IC50 in test [1] (setting [3]) was under 10 µM; in test [1] (setting [4]), under 10 µM; in test [2] (setting [5]), over 10 µM.

“N2-(3-Chloro-4-methoxyphenyl)-N4-(2,2-dimethyl-3-oxo-4H-benz[1,4]oxazin-6-yl)-5-fluoro-N4-methyl-2,4-pyrimidinediamine [Compound 394]”: the IC50 in test [1] (setting [6]) and in test [2] (setting [7]) was under 10 µM in each case.

On to “N2-(Bis-2-hydroxyethyl)-N4-(3,4-ethylenedioxyphenyl)-5-fluoro-N4-methyl-2,4-pyrimidinediamine [Compound 492]”, for which the IC50 in test [1] (setting [6]) and in test [2] (setting [7]) was over 10 µM throughout.

Take “N4-(2,2-Difluoro-3-oxo-4H-benz[1,4]oxazin-6-yl)-5-fluoro-N2-[4-[N-(N-methylamino)carbanylmethylene]aminocarbonyl phenyl]-2,4-pyrimidinediamine [Compound 1297]”: the IC50 in test [1] (setting [3]) was under 10 µM; in test [2] (setting [5]) it was over 10 µM.

For the origin of these results see US7560466B2, “Methods of treating or preventing autoimmune diseases with 2,4-pyrimidinediamine compounds” (Rigel Pharmaceuticals, Inc., priority 2003, dated 2009).
